Experimental data from ChEMBL document CHEMBL5390296, “N-Biphenyl Pyrrolinones and Dibenzofurans as RNA-Binding Protein LIN28 Inhibitors Disrupting the LIN28-Let-7 Interaction” (ACS Med Chem Lett, 2023).
Active and inactive are the calls of the source. The rule behind the calls is not given here.

How the values were obtained:
[1] = Inhibition of LIN28A (16 to 187 residues) (unknown origin) expressed in Escherichia coli BL21(DE3)/mouse let-7 interaction at 75 uM incubated for 15 mins in presence of Cy-3-fluorophore labeled RNA by electrophoretic mobility shift assay relative to control
[2] = target: T1, Protein lin-28 homolog A (Homo sapiens) (UniProt Q9H9Z2); assay: Inhibition of recombinant LIN28A CSD (16 to 126 residues) (unknown origin) assessed as increase in thermal stability at 75 uM incubated for 45 mins by nano differential scanning fluorimetry analysis
T1 sequence (whole entry): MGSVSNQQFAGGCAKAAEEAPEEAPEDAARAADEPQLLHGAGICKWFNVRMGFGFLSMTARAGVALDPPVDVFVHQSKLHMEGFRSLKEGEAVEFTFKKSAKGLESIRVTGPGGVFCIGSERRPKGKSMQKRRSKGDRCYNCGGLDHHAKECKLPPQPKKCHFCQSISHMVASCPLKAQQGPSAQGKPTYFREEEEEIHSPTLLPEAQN

[3] = target: T1, Protein lin-28 homolog A (Homo sapiens); assay: Binding affinity to recombinant LIN28A CSD (16 to 126 residues) (unknown origin) by biolayer interferometry analysis; details: dose 1.56-100 µM
[4] = tested on: JAR; assay: Inhibition of let-7d miRNA biogenesis in human JAR cells incubated for 24 hrs by qPCR analysis; format: functional, cell-based; details: dose 5-20 µM
[5] = tested on: let-7i miRNA; assay: Inhibition of let-7i miRNA biogenesis in human JAR cells incubated for 24 hrs by qPCR analysis; format: functional, cell-based; details: dose 5-20 µM
[6] = organism: Homo sapiens; assay: Inhibition of LIN28B (24 to 111 residues) (unknown origin) expressed in Escherichia coli BL21(DE3)/mouse let-7 interaction incubated for 15 mins in presence of Cy-3-fluorophore labeled RNA by electrophoretic mobility shift assay; details: dose 2.3-150 µM
[7] = Inhibition of let-7d miRNA biogenesis in human JAR cells assessed as fold increase in mature […] at 5 to 20 uM incubated for 24 hrs by qPCR analysis; format: functional; details: dose 5-20 µM
[8] = tested on: let-7i miRNA; assay: Inhibition of let-7i miRNA biogenesis in human JAR cells assessed as fold increase in mature […] at 5 to 20 uM incubated for 24 hrs by qPCR analysis; format: functional, cell-based; details: dose 5-20 µM
[9] = Inhibition of LIN28A (16 to 187 residues) (unknown origin) expressed in Escherichia coli BL21(DE3)/mouse let-7 interaction incubated for 15 mins in presence of Cy-3-fluorophore labeled RNA by electrophoretic mobility shift assay

In the case of `NC1=C(C(=O)c2ccccc2)[C@@H](c2ccc([N+](=O)[O-])cc2)N(c2ccc(O)c(C(=O)O)c2)C1=O`, the inhibition [1] is reported as “inactive”.
`Cc1ccc(C(=O)C2=C(O)C(=O)N(c3ccc(O)c(C(=O)O)c3)C2c2ccc([N+](=O)[O-])cc2)cc1` (centres undefined) showed an inhibition [1] of 65.6%.
Work on `O=C(O)c1cc(N2C(=O)C(O)=C(c3nccs3)C2c2ccc([N+](=O)[O-])cc2)ccc1O` (centres undefined) yielded an inhibition [1] of 64.8%.
With `O=C1C(=O)C2(CCCCC2=O)C(c2ccccc2)N1c1ccccc1` (centres undefined) the inhibition [1] was “inactive”.
In the case of `O=C1C(=O)C2(CCCC2=O)C(c2ccc([N+](=O)[O-])cc2)N1c1cccc(-c2ccccc2)c1` (centres undefined), the inhibition [1] is reported as “inactive”.
With `O=C(O)c1cc(N2C(=O)c3c(c(-c4ccccc4)nn3Cc3ccccc3)C2c2ccc([N+](=O)[O-])cc2)ccc1O` (centres undefined) the inhibition [1] was “inactive”.
With `Cn1nnc2cc(C3C(C(=O)c4ccccc4)=C(O)C(=O)N3c3ccc(O)c(C(=O)O)c3)ccc21` (centres undefined) the ΔTm [2] was under 0.5 °C.
In the case of `O=C(O)c1cc(N2C(=O)c3nn(Cc4ccccc4)c(-c4ccccc4)c3C2c2ccc([N+](=O)[O-])cc2)ccc1O` (centres undefined), the inhibition [1] is reported as “inactive”.
For `O=C1C(=O)C2(CCCCC2=O)C(c2ccc([N+](=O)[O-])cc2)N1c1cccc(-c2ccccc2)c1` (centres undefined), the inhibition [1] was “inactive”.
For `O=C(C1=C(O)C(=O)N(c2ccc(O)c(C(=O)O)c2)[C@H]1c1ccc([N+](=O)[O-])cc1)c1ccc(Cl)cc1`, the inhibition [1] was “inactive”.
`O=C(C1=C(O)C(=O)N(c2ccc(O)c(C(=O)O)c2)C1c1ccc([N+](=O)[O-])cc1)c1ccccn1` (centres undefined) gave an inhibition [1] of 106%.
With `O=C(C1=C(O)C(=O)N(c2ccc(O)c(C(=O)O)c2)[C@@H]1c1ccc([N+](=O)[O-])cc1)c1ccc(Cl)cc1` the inhibition [1] was “inactive”.
In the case of `O=C(C1=C(O)C(=O)N(c2cccc(-c3ccccc3)c2)C1c1ccc([N+](=O)[O-])cc1)c1ccccc1` (racemic), the inhibition [1] is reported as 84%, the Activity [3] is reported as “Dose-Dependent Effect” and the Activity [4] is reported as “Dose-Dependent Effect”. The Activity [5] was “Dose-Dependent Effect”, the inhibition [6] was “Dose-Dependent Effect” and the “fold change (FC)” value [7] was 2. For the same compound, the fold change (FC) [8] was 2.
With `COc1ccc(C(=O)C2=C(O)C(=O)N(c3cccc(-c4ccccc4)c3)C2c2ccc([N+](=O)[O-])cc2)cc1OC` (centres undefined) the inhibition [1] was “inactive”.
For `Nc1ccc(C2C(C(=O)c3ccccc3)=C(O)C(=O)N2c2ccc(O)c(C(=O)O)c2)cc1` (centres undefined), the IC50 [9] was 5 µM.
In the case of `O=C(C1=C(O)C(=O)N(c2cccc(-c3ccccc3)c2)C1c1ccc([N+](=O)[O-])cc1)c1ccc(F)cc1O` (centres undefined), the inhibition [1] is reported as “inactive”.
With `O=C1C(=O)C2(CCCC2=O)C(c2ccc([N+](=O)[O-])cc2)N1c1ccc2c(c1)oc1ccccc12` (centres undefined) the inhibition [1] was “inactive”.
Work on `O=C(C1=C(O)C(=O)N(c2cccc(-c3ccccc3)c2)[C@@H]1c1ccc([N+](=O)[O-])cc1)c1ccccc1` yielded an IC50 [9] of 37 µM.
In the case of `O=C(C1=C(O)C(=O)N(c2cccc([N+](=O)[O-])c2)[C@H]1c1ccc([N+](=O)[O-])cc1)c1ccccc1`, the inhibition [1] is reported as “inactive”.
In the case of `O=C1C(=O)C2(CCCC2=O)C(c2ccccc2)N1c1ccccc1` (centres undefined), the inhibition [1] is reported as “inactive”.
With `O=C(O)c1cc(N2C(=O)C(O)=C(Cc3ccccc3)[C@@H]2c2ccc([N+](=O)[O-])cc2)ccc1O` the inhibition [1] was “inactive”.
With `O=C(C1=C(O)C(=O)N(c2cccc([N+](=O)[O-])c2)[C@@H]1c1ccc([N+](=O)[O-])cc1)c1ccccc1` the inhibition [1] was “inactive”.
For `O=C(O)c1cc(N2C(=O)C(O)=C(Cc3ccccc3)[C@H]2c2ccc([N+](=O)[O-])cc2)ccc1O`, the inhibition [1] was “inactive”.
For `N=C1CC=CC=C1C1=C(N)C(=O)N(c2ccc(O)c(C(=O)O)c2)[C@@H]1c1ccc([N+](=O)[O-])cc1`, the inhibition [1] was “inactive”.
For `O=C1C(=O)C2(CCCC2=O)C(c2ccc([N+](=O)[O-])cc2)N1c1ccc2oc3ccccc3c2c1` (centres undefined), the inhibition [1] was “inactive”.
With `O=C(C1=C(O)C(=O)N(c2cccc(-c3ccccc3)c2)C1c1ccc([N+](=O)[O-])cc1)C1CC1` (centres undefined) the inhibition [1] was “inactive”.
`O=C(C1=C(O)C(=O)N(CCCc2ccccc2)C1c1ccc([N+](=O)[O-])cc1)c1ccccc1` (centres undefined) showed an IC50 [9] of 5 µM.
For `CS(=O)(=O)c1ccc(C(=O)C2=C(O)C(=O)N(c3cccc(-c4ccccc4)c3)C2c2ccc([N+](=O)[O-])cc2)cc1` (centres undefined), the inhibition [1] was “inactive”.
